Measured values reported in the supplement of paper PMC11061612.

What was measured:
Test in all cases: Bliss excess, mean over the matrix (fraction); higher = more synergy
[1] = test system: NCI-H1155 (Non-Small Cell Lung Carcinoma)
Method in brief: (§1)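 Cell lines grown in DMEM/F12 or RPMI with 10% FBS were plated in 1536-well plates and held 24 hours at 37°C, 5% CO2 before 72 hours of exposure to two-drug dose matrices, with DMSO typically at 0.2%. CellTiter-Glo 2.0 luminescence gave viability, which was converted to inhibition. Vehicle wells were set to 0 and blank wells to 1. Combination Emax is the second-highest inhibition in the matrix, and Bliss excess is the observed combination effect minus the expected EA + EB − EA·EB, where EA and EB are the single-agent effects.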

[2] = test system: RERF-LC-KJ (Lung Adenocarcinoma)
Method in brief: as §1

[3] = test system: KYSE-70 (Esophageal Squamous Cell Carcinoma)
Method in brief: as §1

RT4 (Bladder Carcinoma) = test system: RT4 (Bladder Carcinoma)
Method in brief: as §1

[4] = test system: EB-3 (Burkitt's Lymphoma)
Method in brief: as §1

[5] = test system: RPMI-8866 (Chronic Myelogenous Leukemia)
Method in brief: as §1

[6] = test system: COLO-684 (Endometrial Carcinoma)
Method in brief: as §1

[7] = test system: OVTOKO (Ovarian Carcinoma)
Method in brief: as §1

[8] = test system: HSC-3 (Oral Cavity Carcinoma)
Method in brief: as §1

[9] = test system: PC-14 (Lung Adenocarcinoma)
Method in brief: as §1

[10] = test system: NCI-H1755 (Lung Adenocarcinoma)
Method in brief: as §1

[11] = test system: AN3-CA (Endometrial Carcinoma)
Method in brief: as §1

[12] = test system: HTC-C3 (Thyroid Gland Carcinoma)
Method in brief: as §1

[13] = test system: OV-90 (Ovarian Carcinoma)
Method in brief: as §1

KYM-1 (Rhabdomyosarcoma) = test system: KYM-1 (Rhabdomyosarcoma)
Method in brief: as §1

[14] = test system: SNU-175 (Colorectal Carcinoma)
Method in brief: as §1

[15] = test system: BALL-1 (B-Lymphoblastic Leukemia)
Method in brief: as §1

[16] = test system: SJRH30 (Rhabdomyosarcoma)
Method in brief: as §1

[17] = test system: AsPC-1 (Pancreatic Carcinoma)
Method in brief: as §1

[18] = test system: NCI-H810 (Non-Small Cell Lung Carcinoma)
Method in brief: as §1

Compound | Bliss excess [1] | Bliss excess [2] | Bliss excess [3] | Bliss excess (RT4 (Bladder Carcinoma)) | Bliss excess [4] | Bliss excess [5] | Bliss excess [6] | Bliss excess [7] | Bliss excess [8] | Bliss excess [9] | Bliss excess [10] | Bliss excess [11] | Bliss excess [12] | Bliss excess [13] | Bliss excess (KYM-1 (Rhabdomyosarcoma)) | Bliss excess [14] | Bliss excess [15] | Bliss excess [16] | Bliss excess [17] | Bliss excess [18]
COc1nnc2ccc(N3CCC(c4ccc(OCCN5CCN(C)C(=O)[C@H]5C)cc4)CC3)nn12 [AZD5153] + C=CCn1c(=O)c2cnc(Nc3ccc(N4CCN(C)CC4)cc3)nc2n1-c1cccc(C(C)(C)O)n1 [AZD1775] (first compound max 1 µM, partner max 1 µM) | 0.0523 | -0.0224 | -0.0519 | -0.0064 | -0.114 | -0.0864 | -0.0852 | 0.0095 | -0.0396 | -0.0488 | -0.0088 | -0.0624 | -0.033 | -0.0367 | -0.0249 | -0.0647 | -0.0234 | -0.019 | 0.0167 | -0.0578
COc1cccc(OCCCN)c1-c1cc(Nc2cnc(C#N)cn2)n[nH]1 [Prexasertib] + C[C@@H]1COCCN1C2=NC(=NC(=C2)C3(CC3)[S@](=N)(=O)C)C4=C5C=CNC5=NC=C4 [AZD6738] (first compound max 1 µM, 7x7, partner max 10 µM) | -0.0438 | -0.0002 | 0.0378 | 0.0645 | -0.0598 | 0.0633 | -0.0733 | 0.0006 | 0.0351 | -0.047 | -0.0534 | -0.0308 | -0.0034 | -0.0275 | -0.0107 | 0.0641 | -0.001 | -0.0192 | 0.0292 | -0.0519
CN(CCO)CC[C@H](CSc1ccccc1)Nc1ccc(S(=O)(=O)NC(=O)c2ccc(N3CCC([C@@H](O)c4ccccc4-c4ccc(Cl)cc4)CC3)cc2)cc1S(=O)(=O)C(F)(F)F [AZD4320] + Cc1cc2ncnn2cc1Nc1ncc2c(n1)n(C1CCOCC1)c(=O)n2C [AZD7648] (first compound max 1 µM, 7x7, partner max 10 µM) | 0.017 | -0.0314 | -0.0225 | -0.004 | -0.0076 | 0.0654 | -0.0221 | -0.0393 | -0.0051 | -0.0188 | -0.0279 | -0.0057 | 0.0016 | -0.055 | -0.018 | -0.006 | 0.0087 | -0.0072 | -0.0575 | 0.004
COc1cccc(OCCCN)c1-c1cc(Nc2cnc(C#N)cn2)n[nH]1 [Prexasertib] + CN(C)CCCOc1ccc(-c2ccc3ncc4c(c3c2)n(C2CCOCC2)c(=O)n4C)cn1 [AZD0156] (first compound max 1 µM, 7x7, partner max 1 µM) | -0.0753 | -0.0159 | -0.0233 | 0.0482 | 0.0498 | -0.009 | -0.0172 | 0.0594 | -0.0322 | -0.0284 | -0.011 | -0.0442 | -0.029 | -0.035 | 0.0147 | 0.0462 | 0.0043 | -0.0242 | 0.0303 | -0.0327
Cc1c2c(nn1C)CSCc1cc(n(C)n1)CSc1cc(c3ccccc3c1)OCCCc1c(C(=O)O)n(C)c3c-2c(Cl)ccc13 [AZD5991] + CCN(CCO)CCCOc1ccc2c(Nc3cc(CC(=O)Nc4cccc(F)c4)[nH]n3)ncnc2c1 [AZD2811] (first compound max 1 µM, 7x7, partner max 1 µM) | 0.0911 | 0.0402 | 0.0651 | 0.11 | -0.0197 | 0.149 | 0.0271 | 0.0153 | 0.0617 | 0.0381 | 0.0561 | 0.0922 | 0.0318 | 0.0136 | 0.0646 | -0.0794 | 0.213 | 0.0922 | -0.0331 | 0.114
COc1cccc(OCCCN)c1-c1cc(Nc2cnc(C#N)cn2)n[nH]1 [Prexasertib] + CCc1c2c(nc3ccc(O)cc13)-c1cc3c(c(=O)n1C2)COC(=O)[C@]3(O)CC [SN-38] (first compound max 1 µM, 7x7, partner max 0.3 µM) | -0.0161 | 0.0513 | 0.0907 | -0.0055 | -0.0404 | 0.0104 | 0.0379 | -0.0192 | -0.0455 | -0.0169 | -0.0057 | 0.0972 | 0.0844 | -0.0591 | -0.0634 | -0.0298 | -0.016 | 0.012 | -0.0333 | 0.0967
CC1(C)CCC(CN2CCN(c3ccc(C(=O)NS(=O)(=O)c4ccc(NCC5CCOCC5)c([N+](=O)[O-])c4)c(Oc4cnc5[nH]ccc5c4)c3)CC2)=C(c2ccc(Cl)cc2)C1 [Venetoclax] + CN(C)CCCOc1ccc(-c2ccc3ncc4c(c3c2)n(C2CCOCC2)c(=O)n4C)cn1 [AZD0156] (first compound max 1 µM, 7x7, partner max 1 µM) | -0.0214 | 0.013 | -0.0359 | -0.0259 | 0.0498 | -0.0408 | -0.0356 | -0.086 | 0.012 | 0.0043 | 0.0342 | -0.06 | -0.0378 | -0.041 | 0.013 | -0.0511 | 0.031 | 0.0084 | -0.1 | -0.0485
Cn1cnc2c(F)c(Nc3ccc(Br)cc3Cl)c(C(=O)NOCCO)cc21 [Selumetinib] + CC(C)n1c(=O)n(C)c2cnc3cc(F)c(-c4ccc(OCCCN5CCCCC5)nc4)cc3c21 [AZD1390] (first compound max 10 µM, 7x7, partner max 0.3 µM) | -0.0679 | -0.0073 | -0.0481 | -0.0267 | -0.0806 | -0.0193 | -0.0257 | -0.0509 | -0.0424 | -0.0015 | 0.0153 | -0.0669 | -0.0092 | 0.0131 | -0.0207 | 0.0063 | -0.0156 | -0.031 | -0.0093 | -0.0525
CCN(CCO)CCCOc1ccc2c(Nc3cc(CC(=O)Nc4cccc(F)c4)[nH]n3)ncnc2c1 [AZD2811] + C=CCn1c(=O)c2cnc(Nc3ccc(N4CCN(C)CC4)cc3)nc2n1-c1cccc(C(C)(C)O)n1 [AZD1775] (first compound max 1 µM, partner max 1 µM) | 0.0451 | 0.0515 | -0.0449 | 0.0196 | -0.071 | 0.0714 | -0.0443 | -0.0353 | 0.0504 | -0.0026 | -0.0428 | 0.0276 | -0.0174 | 0.021 | -0.0096 | -0.0108 | 0.0612 | 0.0089 | -0.0738 | -0.0022
CC1(C)CCC(CN2CCN(c3ccc(C(=O)NS(=O)(=O)c4ccc(NCC5CCOCC5)c([N+](=O)[O-])c4)c(Oc4cnc5[nH]ccc5c4)c3)CC2)=C(c2ccc(Cl)cc2)C1 [Venetoclax] + C[C@@H]1COCCN1C2=NC(=NC(=C2)C3(CC3)[S@](=N)(=O)C)C4=C5C=CNC5=NC=C4 [AZD6738] (first compound max 1 µM, 7x7, partner max 10 µM) | 0.0582 | -0.0036 | -0.0447 | -0.0281 | -0.0047 | 0.0052 | 0.005 | -0.0395 | -0.0022 | -0.021 | -0.0578 | -0.0068 | -0.0354 | 0.0022 | -0.0119 | -0.0392 | 0.0053 | -0.0182 | -0.0301 | -0.0356
CC1(C)CCC(CN2CCN(c3ccc(C(=O)NS(=O)(=O)c4ccc(NCC5CCOCC5)c([N+](=O)[O-])c4)c(Oc4cnc5[nH]ccc5c4)c3)CC2)=C(c2ccc(Cl)cc2)C1 [Venetoclax] + C=CCn1c(=O)c2cnc(Nc3ccc(N4CCN(C)CC4)cc3)nc2n1-c1cccc(C(C)(C)O)n1 [AZD1775] (first compound max 1 µM, partner max 1 µM) | -0.0417 | -0.0394 | -0.0169 | 0.0364 | -0.0193 | -0.0547 | -0.0644 | -0.0903 | -0.0216 | -0.0027 | 0.054 | -0.0253 | -0.065 | -0.0168 | 0.0082 | -0.0735 | 0.0171 | -0.045 | -0.0879 | -0.0873
CCN(CCO)CCCOc1ccc2c(Nc3cc(CC(=O)Nc4cccc(F)c4)[nH]n3)ncnc2c1 [AZD2811] + C[C@@H]1COCCN1C2=NC(=NC(=C2)C3(CC3)[S@](=N)(=O)C)C4=C5C=CNC5=NC=C4 [AZD6738] (first compound max 1 µM, 7x7, partner max 10 µM) | -0.0099 | -0.0512 | -0.0383 | -0.0318 | -0.0835 | -0.0271 | -0.0913 | -0.0305 | -0.0195 | -0.0492 | -0.0621 | -0.0315 | -0.0273 | -0.0772 | -0.0214 | -0.07 | 0.0288 | -0.0079 | -0.0164 | -0.0764
Cc1cc2ncnn2cc1Nc1ncc2c(n1)n(C1CCOCC1)c(=O)n2C [AZD7648] + CCN(CCO)CCCOc1ccc2c(Nc3cc(CC(=O)Nc4cccc(F)c4)[nH]n3)ncnc2c1 [AZD2811] (first compound max 10 µM, 7x7, partner max 1 µM) | 0.0796 | 0.0428 | 0.0476 | 0.0534 | -0.0338 | -0.0233 | 0.0234 | -0.0011 | 0.0012 | 0.0257 | 0.0038 | 0.0113 | 0.0226 | -0.017 | 0.0571 | 0.0136 | 0.13 | 0.0417 | -0.0312 | -0.0162
Cc1cc2ncnn2cc1Nc1ncc2c(n1)n(C1CCOCC1)c(=O)n2C [AZD7648] + C=CCn1c(=O)c2cnc(Nc3ccc(N4CCN(C)CC4)cc3)nc2n1-c1cccc(C(C)(C)O)n1 [AZD1775] (first compound max 10 µM, partner max 1 µM) | 0.033 | 0.0509 | 0.0184 | 0.0218 | -0.102 | -0.0616 | -0.0713 | 0.0188 | -0.0488 | -0.025 | 0.0084 | -0.0091 | 0.0255 | -0.0163 | 0.0302 | -0.0043 | -0.0169 | 0.0139 | 0.0558 | -0.0103
